What was measured:
human mPGES-1 = target: T1, human mPGES-1 (Homo sapiens, UniProt O14684); assay: Test for mPGES-1 inhibitory activity; assay type: biochemical; conditions: microsomes of COS-1 cells expressing human mPGES-1; PGH2 1 μM; 4° C.; PGE2 by EIA; read-out: IC50 value (mPGES-1 inhibition)
T1 construct: expressed in transfected cells; host or cells: COS-1 cells (microsomal fraction)
T1 sequence (O14684 1-152): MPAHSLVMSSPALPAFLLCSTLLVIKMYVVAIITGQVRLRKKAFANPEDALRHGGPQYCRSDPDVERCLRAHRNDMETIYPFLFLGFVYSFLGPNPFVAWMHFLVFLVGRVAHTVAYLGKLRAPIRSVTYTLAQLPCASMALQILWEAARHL
Protocol: Microsomes were prepared from COS-1 cells transiently transfected with a plasmid containing human mPGES-1 cDNA, and used as mPGES-1 enzyme. The mPGES-1 enzyme was diluted with a sodium phosphate buffer (pH 7.2) containing reduced glutathione (2.5 mM) and EDTA (1 mM), DMSO or a DMSO solution of a test compound (final concentration of DMSO was 1%) was added to the enzyme, and the mixture was preincubated at 4° C. for 15 minutes. Then, PGH2 as the substrate was added at a final concentration of 1 μM to start the enzymatic reaction, and after incubation at 4° C. for 4 minutes, a solution of ferric chloride (25 mM) and citric acid (50 mM) was added to terminate the enzymatic reaction. Generated PGE2 was measured by using Prostaglandin E2 Express EIA Kit (Cayman Chemical). IC50 values were determined by using a standard method.

[1] = Blood concentration (plasma pharmacokinetics after oral administration); assay type: in vivo; conditions: female, guinea pig, guinea pigs, oral 10 mg/kg, mean (n = 2)
Protocol: The compound of Example 1 and the compound disclosed in International Patent Publication WO2017/73709, Example 182 were weighed in an amount of 10 mg each for a dose of 10 mg/kg, and each compound was finely ground in an agate mortar for about 30 seconds. 0.5% Methyl cellulose 400 solution (Fujifilm Wako Pure Chemicals Co., Ltd.) was added small portionwise to each compound to form a suspension, finally the mortar was washed with a small volume of 0.5% MC400 solution, which was combined with the suspension, and the total volume of the suspension was made to be 10 mL with 0.5% MC400 solution. The suspension was sonicated for approximately 1 minute to prepare a 1 mg/mL solution for administration. The solution was administered to two female guinea pigs at a dose of 10 mL/kg using a flexible oral catheter (RZ-1, Nippon Clea), and blood was collected 0.5, 1, 2, 4, 6, 10, and 24 hours after the oral administration, and centrifuged to obtain plasma. Plasma concentrations of the compounds were measured by the LC-MS/MS (liquid chromatography-tandem mass spectrometry) method.

UGT [2] = assay: Metabolic stability test (UGT), rat microsomes; assay type: in vitro ADME; conditions: Rat liver or small intestine microsomes 0.5 mg protein/mL, compound 1 μM, UDPGA 2 mM, 5 minutes at 37° C.
Protocol: (§1) DMSO was added to the compound of Example 1 to dissolve the compound, and then acetonitrile and water were added to prepare a test compound solution (10 μM). The test compound solution (final concentration 1 μM), a potassium phosphate buffer (pH 7.4) containing MgCl2 (9 mM) and alamethicin (25 μg/mL), and a rat or guinea pig liver or small intestine microsomal suspension were mixed (final concentration 0.5 mg protein/mL) under ice cooling. After 5 minutes of pre-incubation at 37° C. with stirring, a UDPGA solution (final concentration 2 mM) was added to initiate the reaction. After 5 minutes of incubation at 37° C. with stirring, 3-fold volume of acetonitrile was added, and the resulting mixture was stirred to terminate the enzymatic reaction. The reaction mixture was centrifuged (1500×g, 10 minutes, 4° C.), and the supernatant was mixed with an internal standard solution to prepare a measurement sample. The concentration of the compound in the sample was determined by LC-MS/MS. A sample in which the enzymatic reaction was not allowed was separately prepared, and the concentration measured for this sample was used as the initial value. For comparison, the compound of International Publication WO2017/73709, Example 182 was tested in the same manner.

UGT [3] = assay: Metabolic stability test (UGT), guinea pig microsomes; assay type: in vitro ADME; conditions: Guinea pig liver or small intestine microsomes 0.5 mg protein/mL, compound 1 μM, UDPGA 2 mM, 5 minutes at 37° C.
Protocol: as §1

Solubility test = assay type: physicochemical; conditions: aqueous buffer, kinetic from dmso stock; JP2 solution (pH 6.8), 10 mM DMSO solution diluted 50-fold, incubation 16 to 24 hours
Protocol: A 10 mM solution of the compound of Example 1 in DMSO was prepared, and diluted 50-fold with JP2 solution (pH 6.8). After incubation for 16 to 24 hours, the test solution was filtered, and the concentration of the compound in the filtrate was determined by HPLC-UV or with a plate reader. For comparison, the compound of International Patent Publication WO2017/73709, Example 182 was tested in the same manner.

- IC50 (human mPGES-1): 1.8 nM
- AUC(0-inf) [1]: 62.1 µM·h
- AUC(0-t) [1]: 42.4 µM·h
- Cmax [1]: 5.63 µM
- Tmax [1]: 1.5 h
- half-life [1]: 13.3 h
- MRT inf ([1]; read-out: MRT0-∞): 18.3 h
- UGT metabolic stability (UGT [2]): 124 μL/min/mg protein
- UGT metabolic stability (UGT [3]): 130 μL/min/mg protein
- solubility (Solubility test): > 110 µg/mL
Structure (SMILES): CC(C)(F)C(=O)NCc1ccc(C(F)(F)F)c(-c2nc(-c3ccc(C(F)(F)F)cn3)cc(=O)[nH]2)c1F [Example 1, 2-Fluoro-N-(2-fluoro-3-{6-oxo-4-[5-(trifluoromethyl)pyridin-2-yl]-1,6-dihydropyrimidin-2-yl}-4-(trifluoromethyl)benzyl)-2-methylpropanamide]
